Measurements from patent publication US20230109801A1 (Blue Oak Pharmaceuticals, Inc., priority 2020, published 2023).
Where a name gives a salt, the structure may show the parent alone.

Test system: mice
Assay: SmartCube in vivo neuropharmacological behavioral assay
Settings: for minimal effective dose: Mus musculus, ip, dose having 50% or more total activity in SmartCube, i.p., read-out: MED (minimal effective dose); for AD: antidepressant, percent probability / AG: analgesic, percent probability / AP: antipsychotic, percent probability / AX: anxiolytic, percent probability / CE: cognitive enhancer, percent probability / HA: hallucinogenic, percent probability / MS: mood stabilizer, percent probability / PS, percent probability / SD: sedative hypnotic, percent probability / SE: side effects, percent probability / UN: uncharacterized CNS activity, percent probability / XG: anxiogenic, percent probability: SmartCube, i.p. 15 min before test, at the MED
Procedure: The compounds were evaluated for their CNS related properties (e.g., the treatment, prevention or diagnosis of CNS or CNS-related disorders and/or amelioration of symptoms) using neuropharmacological screening methods described in S. L. Roberts et al., Front. Neurosci. 2011, 5:103 (hereinafter referred to as “Roberts,” the contents of which are incorporated herein by reference in their entirety).
According to Roberts, intact systems are useful in detecting improvement in disease-relevant endpoints, because psychiatric diseases generally result from disorders of cell-cell communication or circuitry. The endpoints are typically behavioral in nature, often requiring human observation and interpretation. In order to test multiple compounds for behavioral effects relevant to neurological and psychiatric diseases and disorders, PsychoGenics, Inc. (Paramus, N.J. “PGI”) developed SmartCube®, an automated system in which behaviors of compound-treated mice are captured by digital video and analyzed with computer algorithms to facilitate testing of multiple compounds for behavioral effects relevant to psychiatric disease. (D. Brunner et al., Drug Discov. Today 2002, 7:S107-S112; Alexandrov et al., Eur. J. Pharmacol. 2015, 753:127-134; the contents of each of which are incorporated herein by reference in their entirety).
The SmartCube® system is described in Example 2.2 of U.S. Pat. No. 9,758,529 and Example 289 of WIPO Publication No. WO2018/023070, the contents of each of which are incorporated herein by reference in their entirety.
According to the present disclosure, compounds identified may be evaluated using the SmartCube® system. The results of such analysis correlate certain patterns or combinations of behaviors to CNS effects along a percent probability scale of 0-100 where zero (O) reflects the limit of quantitation (LOQ).
The compounds of the present disclosure were evaluated for their CNS related properties (e.g., the treatment, prevention or diagnosis of CNS or CNS-related disorders and/or amelioration of symptoms) using neuropharmacological screening methods described in S. L. Roberts et al., Front. Neurosci. 2011, 5:103 (hereinafter referred to as “Roberts,” the contents of which are incorporated herein by reference in their entirety).
The SmartCube® system described herein was utilized to compare the behavioral signature of a test compound to a database of behavioral signatures obtained using a large set of diverse reference compounds (including but not limited to antipsychotics, anxiolytics, antidepressants and bipolar disorder medicine), thereby predicting the neuropharmacological effects of a test compound by similarity to major classes of compounds. It produces an activity signature indicating the probability that the activity of the test compound at the administered dose matches a given class of neuropharmacological agents. The test compound is simultaneously compared against multiple classes of agents; thus, a separate probability is generated for each behavioral effect measured (such as but not limited to anxiolytic activity and analgesic activity).
The compounds of the present disclosure were dissolved in a mixture of Pharmasolve™ (N-methyl-2-pyrrolidone (NMP)) and were injected i.p. 15 min. before the behavioral test. For each compound, injections were administered at different dose levels (e.g., 0.3, 1, 3, 10 and 30 mg per kg (mpk)). A compound's minimal effective dose (MED; see Table 3) is a measure of the compound's potency. The MED was defined as the dose (in mpk) having 50% or more total activity in SmartCube®. For each behavioral effect measured, results at the MED are presented. CNS activities of the compounds were recorded (see Table 2). In Table 1, a key to the percent probabilities (probability×100) for each behavioral effect (“X”) are defined provided, where LOQ is the limit of quantification.

Row | SMILES | minimal effective dose [mg/kg] | AD: antidepressant, percent probability | AG: analgesic, percent probability | AP: antipsychotic, percent probability | AX: anxiolytic, percent probability | CE: cognitive enhancer, percent probability | HA: hallucinogenic, percent probability | MS: mood stabilizer, percent probability | PS, percent probability | SD: sedative hypnotic, percent probability | SE: side effects, percent probability | UN: uncharacterized CNS activity, percent probability | XG: anxiogenic, percent probability
1 | CC(C)N1C2CCC1c1ccccc12 [Compound 42, 11-(Propan-2-yl)-11-azatricyclo[6.2.1.0^2,7]undeca-2,4,6-triene hydrochloride] | 10 to 30 | ++ (5% ≤ X < 25%) | ++ (5% ≤ X < 25%) | + (LOQ ≤ X < 5%) | + (LOQ ≤ X < 5%) | + (LOQ ≤ X < 5%) | ++ (5% ≤ X < 25%) | + (LOQ ≤ X < 5%) | +++ (25% ≤ X < 50%) | + (LOQ ≤ X < 5%) | + (LOQ ≤ X < 5%) | ++ (5% ≤ X < 25%) | + (LOQ ≤ X < 5%)
2 | c1ccc2c(c1)C1CCC2N1C1CCCC1 [Compound 43, 11-Cyclopentyl-11-azatricyclo[6.2.1.0^2,7]undeca-2,4,6-triene hydrochloride] | 10 to 30 | ++++ (50% ≤ X <1 00%) | + (LOQ ≤ X < 5%) | + (LOQ ≤ X < 5%) | ++ (5% ≤ X < 25%) | + (LOQ ≤ X < 5%) | + (LOQ ≤ X < 5%) | + (LOQ ≤ X < 5%) | ++ (5% ≤ X < 25%) | + (LOQ ≤ X < 5%) | + (LOQ ≤ X < 5%) | ++ (5% ≤ X < 25%) | + (LOQ ≤ X < 5%)
3 | CCC(C)N1C2CCC1c1ccccc12 (stereo not drawn) [Compound 44, 11-(Butan-2-yl)-11-azatricyclo[6.2.1.0^2,7]undeca-2,4,6-triene hydrochloride] | 1 to 10 | ++++ (50% ≤ X <1 00%) | + (LOQ ≤ X < 5%) | + (LOQ ≤ X < 5%) | ++ (5% ≤ X < 25%) | + (LOQ ≤ X < 5%) | + (LOQ ≤ X < 5%) | + (LOQ ≤ X < 5%) | ++ (5% ≤ X < 25%) | + (LOQ ≤ X < 5%) | + (LOQ ≤ X < 5%) | + (LOQ ≤ X < 5%) | + (LOQ ≤ X < 5%)
4 | c1ccc2c(c1)C1CCC2N1C1CC1 [Compound 45, 11-Cyclopropyl-11-azatricyclo[6.2.1.0^2,7]undeca-2,4,6-triene hydrochloride] | 10 to 30 | ++ (5% ≤ X < 25%) | ++ (5% ≤ X < 25%) | ++ (5% ≤ X < 25%) | ++ (5% ≤ X < 25%) | ++ (5% ≤ X < 25%) | + (LOQ ≤ X < 5%) | + (LOQ ≤ X < 5%) | + (LOQ ≤ X < 5%) | + (LOQ ≤ X < 5%) | + (LOQ ≤ X < 5%) | ++ (5% ≤ X < 25%) | + (LOQ ≤ X < 5%)
5 | COCC(C)N1C2CCC1c1ccccc12 (stereo not drawn) [Compound 46, 11-(1-Methoxypropan-2-yl)-11-azatricyclo[6.2.1.0^2,7]undeca-2,4,6-triene hydrochloride] | > 30 | + (LOQ ≤ X < 5%) | ++ (5% ≤ X < 25%) | + (LOQ ≤ X < 5%) | + (LOQ ≤ X < 5%) | + (LOQ ≤ X < 5%) | + (LOQ ≤ X < 5%) | + (LOQ ≤ X < 5%) | + (LOQ ≤ X < 5%) | + (LOQ ≤ X < 5%) | + (LOQ ≤ X < 5%) | + (LOQ ≤ X < 5%) | + (LOQ ≤ X < 5%)
6 | CC(C)C(C)N1C2CCC1c1ccccc12 (stereo not drawn) [Compound 47, 11-(3-Methylbutan-2-yl)-11-azatricyclo[6.2.1.0^2,7]undeca-2,4,6-triene hydrochloride] | 10 to 30 | ++++ (50% ≤ X <1 00%) | + (LOQ ≤ X < 5%) | + (LOQ ≤ X < 5%) | + (LOQ ≤ X < 5%) | + (LOQ ≤ X < 5%) | + (LOQ ≤ X < 5%) | + (LOQ ≤ X < 5%) | + (LOQ ≤ X < 5%) | + (LOQ ≤ X < 5%) | + (LOQ ≤ X < 5%) | ++ (5% ≤ X < 25%) | + (LOQ ≤ X < 5%)
7 | CC1C2NC(c3ccccc32)C1C (stereo not drawn) [Compound 48, 9,10-Dimethyl-11-azatricyclo[6.2.1.0^2,7]undeca-2,4,6-triene hydrochloride] | 10 to 30 | ++ (5% ≤ X < 25%) | + (LOQ ≤ X < 5%) | + (LOQ ≤ X < 5%) | ++ (5% ≤ X < 25%) | ++++ (50% ≤ X <1 00%) | ++ (5% ≤ X < 25%) | + (LOQ ≤ X < 5%) | ++ (5% ≤ X < 25%) | + (LOQ ≤ X < 5%) | + (LOQ ≤ X < 5%) | + (LOQ ≤ X < 5%) | + (LOQ ≤ X < 5%)
8 | CC1C(C)C2c3ccccc3C1N2C(C)C (stereo not drawn) [Compound 49, 9,10-Dimethyl-11-(propan-2-yl)-11-azatricyclo[6.2.1.0^2,7]undeca-2,4,6-triene hydrochloride] | 10 to 30 | – | – | – | – | – | – | – | – | – | – | – | –
9 | CC1CC2NC1c1ccccc12 (stereo not drawn) [Compound 50, 9-Methyl-11-azatricyclo[6.2.1.0^2,7]undeca-2,4,6-triene hydrochloride] | 10 to 30 | ++ (5% ≤ X < 25%) | ++ (5% ≤ X < 25%) | + (LOQ ≤ X < 5%) | + (LOQ ≤ X < 5%) | ++ (5% ≤ X < 25%) | + (LOQ ≤ X < 5%) | + (LOQ ≤ X < 5%) | + (LOQ ≤ X < 5%) | + (LOQ ≤ X < 5%) | + (LOQ ≤ X < 5%) | +++ (25% ≤ X < 50%) | + (LOQ ≤ X < 5%)
